Results reported in US20230202997A1, “CHROMANOL, QUINONE OR HYDROQUINONE COMPOUNDS FOR TREATMENT OF SEPSIS” (Sulfateq B.V., priority 2020, published 2023).

How the values were obtained:
IL-1β mRNA expression [1] = assay: Inhibition of LPS-induced IL-1β mRNA expression in HUVEC; format: cell-based, Human; conditions: 10 μM for 30 min, then LPS 24 hours
Description: (§1) Human Umbilical Cord Endothelial Cells (HUVEC, Lonza CC-2519) were maintained on 1% gelatin-coated culture flasks in RPMI1640 medium containing 20% fetal bovine serum, 2 mM Glutamine (Sigma-Aldrich), 1% Penicillin-Streptomycin solution (Sigma-Aldrich) and 50 μg/ml Bovine Pituitary Extract (Invitrogen). HUVEC were passaged by trypsinization when the cultures reach a confluency of 70%. For all experiments, HUVEC were seeded at 0.6·10^5 cells/cm^2 and allowed to adhere for 24 hours.
(§2) HUVEC and NRK52E cells were pre-incubated with SUL compounds (10 μM) for 30 min and subsequently exposed to LPS for 24 hours under standard culture conditions. Cells were lysed in triZOL reagens (Invitrogen) and total RNA isolated according to manufacturers' instruction. 1 μg total RNA per sample was reverse transcribed using the FirstAid Reverse Transcription Kit (ThermoFisher). Copy-DNA equivalents of 5 ng total RNA were amplified on a ViiA7 Real-time PCR system (ThermoFisher, Waltham, Mass.) using iTaq Universal SYBR Green Supermix (Bio-Rad, Hercules, Calif.) and primers specific for tumor necrosis factor alpha, interleukin 1 beta, interleukin-6 and beta actin as loading control. Amplification was performed for 40 cycles of 95° C. for 30 s, 60° C. for 1 min. Relative mRNA expression was calculated as 2^−(Cq^gene^−Cq^reference^) and normalized to unstimulated control cells (100% inhibition) and vehicle-treated and LPS exposed cells (0% inhibition). The following primers were used: […]

IL-6 mRNA expression [2] = assay: Endothelial inflammatory activation after endotoxin, IL-6 mRNA (Example 5); format: cell-based, Human; conditions: HUVEC; 10 μM for 30 min
Description: as §1
(§3) HUVEC cells were lysed in triZOL reagens (Invitrogen) and total RNA isolated according to manufacturers' instruction. 1 μg total RNA per sample was reverse transcribed using the FirstAid Reverse Transcription Kit (ThermoFisher). Copy-DNA equivalents of 5 ng total RNA were amplified on a ViiA7 Real-time PCR system (ThermoFisher, Waltham, Mass.) using iTaq Universal SYBR Green Supermix (Bio-Rad, Hercules, Calif.) and primers specific for tumor necrosis factor alpha (TNFα; sense 5′-[…]-3′, antisense 5′-[…]-3′), interleukin 1 beta (IL-1β; sense 5′-[…]-3′, antisense 5′-[…]-3′), interleukin-6 (IL-6; sense 5′-[…]-3′, antisense 5′-[…]-3′) and beta actin (ACTB; sense 5′-[…]-3′, antisense 5′-[…]-3′) as loading control. Amplification was performed for 40 cycles of 95° C. for 30 s, 60° C. for 1 min. Relative mRNA expression was calculated according to the δδCt-method.

IL-6 mRNA expression [3] = assay: Inhibition of LPS-induced IL-6 mRNA expression in HUVEC; format: cell-based, Human; conditions: 10 μM for 30 min, then LPS 24 hours
Description: as §1, §2

IL-1β mRNA expression [4] = assay: Endothelial inflammatory activation after endotoxin, IL-1β mRNA (Example 5); format: cell-based, Human; conditions: HUVEC; 10 μM for 30 min
Description: as §1, §3

[5] = system: cytoplasmic oxidative stress in HUVEC; assay: LPS-induced cellular superoxide in HUVEC (DHE); format: cell-based, Human; conditions: 10 μM for 30 min, LPS 100 ng/ml 24 hours
Description: as §1
(§4) The production of cellular and mitochondrial oxidative stress was measured using fluorescent probes for cellular and mitochondrial superoxide, i.e. dihydroethidium (DHE) and MitoSox (ThermoFisher), respectively. HUVEC were incubated with BN-80933, SUL-138 or SUL-150 (all 10 μM) for 30 min. Next, HUVEC were exposed to LPS (100 ng/ml) for an additional 24 hours. In the final hour of incubation, 2.5 μM of DHE or MitoSox was applied to each sample. HUVEC were washed in PBS and fixed in 4% paraformaldehyde at room temperature for 15 min. Nuclear staining was performed by 5 μM […] (DAPI) and fluorescence intensity of the samples was recorded in a CLARIOStar Plus plate reader (BMG Labtech) equipped with the appropriate filter sets. Fluorescence recordings for DHE and MitoSox were corrected for DAPI fluorescence. All experiments were performed in quadruplicate.

[6] = system: mitochondrial oxidative stress in HUVEC; assay: LPS-induced mitochondrial superoxide in HUVEC (MitoSox); format: cell-based, Human; conditions: 10 μM for 30 min, LPS 100 ng/ml 24 hours
Description: as §1, §4

TNFα mRNA expression [7] = assay: Inhibition of LPS-induced TNFα mRNA expression in HUVEC; format: cell-based, Human; conditions: 10 μM for 30 min, then LPS 24 hours
Description: as §1, §2

TNFα mRNA expression [8] = assay: Endothelial inflammatory activation after endotoxin, TNFα mRNA (Example 5); format: cell-based, Human; conditions: HUVEC; 10 μM for 30 min
Description: as §1, §3

[9] = system: NO production in RAW264.7 macrophages; assay: Macrophage NO production (nitrate in conditioned medium), basal and after LPS; format: cell-based, Mouse
Description: Mouse macrophage RAW264.7 cells (ATCC #TIB-71) were maintained in DMEM medium containing 10% fetal bovine serum, and 1% Penicillin-Streptomycin solution (Sigma-Aldrich). […] For all experiments, RAW264.7 cells were seeded at 0.5·10^5 cells/cm^2 and allowed to adhere for 24 hours. Cellular production of NO was approximated by measuring nitrate concentrations in culture media using the Measure-IT™ High-Sensitivity Nitrite Assay Kit (#M36051, ThermoFisher) according to manufacturer's instructions. […] Therefore, nitrate concentrations in conditioned media are a good approximate to assess cellular NO production. 50 μl conditioned medium derived from a single 96-wells plate well was used per assay and normalized against protein concentration. All experiments were performed in quadruplicate. LPS induces macrophage NO production by activating iNOS. RAW264.7 macrophages were pre-treated with vehicle (DMSO), BN-80933, SUL-138, or SUL-150 or (all 10 μM) prior to endotoxin (LPS 100 ng/ml) exposure for 24 hours. The nitrate levels in the conditioned medium from LPS exposed RAW264.7 macrophages averaged at 83 pmol/mg protein (˜16-fold increase versus non-exposed RAW264.7 cells, p=0.001).

HUVEC = assay: Cell viability after hypothermia-rewarming stress (Neutral Red); format: cell-based, Human; conditions: 10 μM for 1 hour, 4° C. for 24 hours followed by 37° C. for 3 hours
Description: as §1
HUVEC were pre-treated with BN-80933, SUL-138 or SUL-150 (all 10 μM) for 1 hour in a humidified incubator at 37° C. Following pre-treatment, HUVEC were placed in a cold room (2-8° C.) for 24 hours and subsequently placed back at 37° C. for a 3 hour rewarming period. After 1 hour of rewarming, cell culture medium was replaced by prewarmed and filtered 0.4 mg/mL Neutral Red (#N463 8, Sigma-Aldrich) in culture medium. After the remaining 2 hour rewarming period, HUVEC were washed with PBS and NRU was solubilized in 100 μL resorption solution (50% ethanol, 1% ascetic acid in dH2O). The absorbance was measured at a wavelength of 550 nm on a BioTek ELx808 plate reader. The recorded OD550 nm values were normalized to control samples that were maintained at 37° C. at all times, which were assumed to be 100% viable.

NO production in HUVEC = assay: Endothelial NO production (nitrate in conditioned medium), basal and after LPS; format: cell-based, Human; conditions: 10 μM pre-treatment, LPS 100 ng/ml for 24 hours
Description: as §1
Cellular production of NO was approximated by measuring nitrate concentrations in culture media using the Measure-IT™ High-Sensitivity Nitrite Assay Kit (#M36051, ThermoFisher) according to manufacturer's instructions. […] Therefore, nitrate concentrations in conditioned media are a good approximate to assess cellular NO production. 50 μl conditioned medium derived from a single 96-wells plate well was used per assay and normalized against protein concentration. All experiments were performed in quadruplicate.
Endotoxins suppress endothelial NO production by limiting the activity of eNOS. HUVEC were pre-treated with vehicle (DMSO), BN-80933, SUL-138, or SUL-150 or (all 10 μM) prior to endotoxin (LPS 100 ng/ml) exposure for 24 hours. The nitrate levels in the conditioned medium from endothelial cells exposed to LPS averaged at 160 pmol/mg protein (˜33% reduction versus non LPS exposed HUVEC, p=0.002), which was lower than basal control levels. BN-80933 further suppressed the nitrate levels in the conditioned medium (FIG. 7A) to an average of 90 pmol/mg protein (p=0.008).

[10] = system: sepsis induction in Drosophila melanogaster (Staphylococcus aureus); assay: S. aureus sepsis in flies, survival and negative geotaxis; format: in vivo; conditions: flies with S. aureus sepsis
Description: W1118 flies were bred and housed at 25° C. with a 12 h:12 h light/dark-cycle. Flies were kept in vials containing approximately 5 mL of standard yeast-cornmeal medium. Flies kept as a stock were flipped to fresh vials weekly. The used yeast-cornmeal medium was prepared to the instructions of Stocker and Gallant's ‘Drosophila Methods and Protocols’ and consisted of 100 grams yeast, 75 grams glucose, 8 grams agar, 55 grams cornmeal, and 10 grams wheat flour per litre of water. After boiling, phosphoric acid and propionic acid were added to the mixture to prevent fungal growth.
Staphylococcus aureus (S. aureus) was aerobically cultured overnight in 2.5% tryptic soy broth (TSB) at 37° C. with continuous rotation (200 rounds per minute), from an S. aureus glycerol stock kept at −80° C. For each experiment, a fresh culture was prepared one day prior to the experiment. For bacterial infection, optical density (OD) was measured the following day at 600 nm. Clean TSB was used as OD=0.00 and the bacterial culture was diluted to OD=2.20 with PBS. Next, 1.0 mL of the bacterial culture (OD=2.20) was centrifuged at 14,000 g for 1 minute, the supernatant was discarded, and the bacterial pellet resuspended in 1.0 mL PBS. Serial dilutions (5× and 25× diluted in PBS with optical densities of approximately 1.05 and 0.25, respectively) were used in the appropriate experiments. […]

IL-6 mRNA expression [11] = assay: Inhibition of LPS-induced IL-6 mRNA expression in NRK52E; format: cell-based, Rat; conditions: 10 μM for 30 min, then LPS 24 hours
Description: (§5) Rat kidney epithelial cells (ATCC #CRL-1571) were maintained in DMEM medium containing 10% fetal bovine serum, and 1% Penicillin-Streptomycin solution (Sigma-Aldrich). NRK52E cells were passaged by trypsinization when the cultures reached a confluency of 70%. For all experiments, NRK52E cells were seeded at 0.6·10^5 cells/cm^2 and allowed to adhere for 24 hours.
as §2

TNFα mRNA expression [12] = assay: Inhibition of LPS-induced TNFα mRNA expression in NRK52E; format: cell-based, Rat; conditions: 10 μM for 30 min, then LPS 24 hours
Description: as §5, §2

SMILES | inhibition of LPS-induced mRNA expression of IL-1β (IL-1β mRNA expression [1]) | LPS-induced mRNA expression of IL-6 (IL-6 mRNA expression [2]) | inhibition of LPS-induced mRNA expression of IL-6 (IL-6 mRNA expression [3]) | LPS-induced mRNA expression of IL-1β (IL-1β mRNA expression [4]) | LPS-induced cytoplasmic oxidative stress (DHE) [5] | LPS-induced mitochondrial oxidative stress (MitoSox) [6] | inhibition of LPS-induced mRNA expression of TNFα (TNFα mRNA expression [7]) | LPS-induced mRNA expression of TNFα (TNFα mRNA expression [8]) | LPS-induced increase in extracellular nitrate level ([9]; 10 μM pre-treatment, LPS 100 ng/ml for 24 hours) | basal production of extracellular nitrate ([9]; no LPS, 10 μM) | reduction in cell viability versus normothermic control cells (HUVEC) | nitrate levels in the conditioned medium after LPS (NO production in HUVEC) | Geotaxis ([10]; 3 mM SUL-151, 24 hr and 48 hr after induction) | Survival after 24 hr ([10]; 3 mM SUL-151 intrathoracic injection with the bacteria) | inhibition of LPS-induced mRNA expression of IL-6 (IL-6 mRNA expression [11]) | inhibition of LPS-induced mRNA expression of TNFα (TNFα mRNA expression [12])
Cc1c(C)c2c(c(C)c1O)CC[C@](C)(C(=O)N1CCNCC1)O2 [SUL-150, (R)-(6-hydroxy-2,5,7,8-tetramethylchroman-2-yl)(piperazin-1-yl)methanone] | 78.9 ± 6.0 % | precluded the LPS-induced increase in IL-1β and IL-6 | 69.3 ± 3.9 % | precluded the LPS-induced increase in IL-1β and IL-6 | mitigates the induction of cytoplasmic oxidative stress | precluded the LPS-induced increase in mitochondrial oxidative stress | 79.8 ± 4.1 % | precludes the induction of mRNA expression of the pro-inflammatory cytokine TNFα | Neither SUL-138 nor SUL-150 strongly suppressed the LPS-induced increase in nitrate production | Neither BN-80933, SUL-138, nor SUL-150 affected the basal production of extracellular nitrate | ~15% | mitigated the LPS-induced reduction in nitrate levels and their levels did not change from basal nitrate level | – | – | – | –
Cc1c(C)c2c(c(C)c1O)CC[C@@](C)(C(=O)N1CCNCC1)O2 [SUL-151, (S)-(6-hydroxy-2,5,7,8-tetramethylchroman-2-yl)(piperazin-1-yl)methanone] | 76.7 ± 1.2 % | – | 65.4 ± 4.6 % | – | – | – | 72.5 ± 3.2 % | – | – | – | – | – | improved both at 24 hr and 48 hr | 80% | 83.1 ± 8.3 % | 72.1 ± 14.5 %
